One data set has as its system HBV. Put plainly: anti HBV activity, HepG2.117 cell line, intracellular HBV DNA by realtime PCR. To be noted: HepG2.117 cell line (Tet-off), 3 days of treatment, intracellular HBV DNA quantified by realtime PCR, read-out: HBV-AVE-HepG2.117 EC50. Type of data set: cell-based. The essentials:
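Readout was intracellular HBV DNA by real-time PCR (HBV-specific primers and probe) after 3 days of compound exposure. Serial dilutions were tested in duplicate on HepG2.117 cells, a stable inducible HBV producer in which replication is switched on when doxycycline is absent.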

Data set [1] in a line: Cytotoxicity in HepG2 cells, Resazurin assay. The conditions noted are these: human, HepG2 cells, TOX-HepG2-4 d CC50 (μM), HepG2 cells incubated for 4 days, viability by Resazurin assay.
The mark [2] stands for this setting: Hepatitis B virus, HepG2.117, 72 h.

Each structure is given as a SMILES string. Read-outs that look alike come from different tables or passages of the source. Some results are limits rather than exact numbers.

As usually defined, the EC50 is the concentration needed to bring the measured effect to its halfway point. Broadly, the CC50 is the concentration that lowers cell viability or growth by half. A higher CC50 goes with better tolerance by the cells.

As to `Cn1cc2c(c1C(=O)Nc1ccnc(C(F)(F)F)c1)C=CC(C(F)(F)F)NS2(=O)=O` (stereo not shown) [Compound 58, 7-methyl-1,1-dioxo-3-(trifluoromethyl)-N-[2-(trifluoromethyl)-4-pyridyl]-2,3-dihydropyrrolo[3,4-f]thiazepine-6-carboxamide], the EC50 in the data set on HBV (setting [2]) amounted to 0.29 µM. In data set [1], the CC50 at 4 days is more than 25 µM.
Turning to `Cn1cc2c(c1C(=O)Nc1ccc(F)c(C#N)c1F)CCC(C(C)(C)O)NS2(=O)=O` (stereo not shown) [Compound 185, N-(3-cyano-2,4-difluoro-phenyl)-3-(1-hydroxy-1-methyl-ethyl)-7-methyl-1,1-dioxo-2,3,4,5-tetrahydropyrrolo[3,4-f]thiazepine-6-carboxamide], in the data set on HBV (setting [2]), the EC50 stood at 0.041 µM. The molecule also returned a CC50 at 4 days in data set [1] of more than 25 µM.
Regarding `Cn1cc2c(c1C(=O)Nc1ccc(F)c(C(F)F)c1)CC[C@H](CO)NS2(=O)=O` [Compound 184, (3R)—N-[3-(difluoromethyl)-4-fluoro-phenyl]-3-(hydroxymethyl)-7-methyl-1,1-dioxo-2,3,4,5-tetrahydropyrrolo[3,4-f]thiazepine-6-carboxamide], the EC50 in the data set with HBV (setting [2]) worked out at 0.02 µM. In data set [1], this molecule came in with a CC50 at 4 days of more than 25 µM.
For `C[C@@H]1Oc2c(cn(C)c2C(=O)Nc2ccc(F)c(C(F)F)c2)S(=O)(=O)N[C@@H]1CO` [compound 234], in that order: more than 0.5 µM and more than 25 µM.
On to `C[C@H]1C=Cc2c(cn(C)c2C(=O)Nc2ccc(F)c(Cl)c2F)S(=O)(=O)N1` (single isomer, unassigned) [Compound 52, (3*S)—N-(3-chloro-2,4-difluoro-phenyl)-3,7-dimethyl-1,1-dioxo-2,3-dihydropyrrolo[3,4-f]thiazepine-6-carboxamide], for which, in the data set with HBV (setting [2]), the EC50 amounted to 0.056 µM. In data set [1], the CC50 at 4 days was more than 25 µM.
As to `CC(C)[C@H]1COc2c(ccc(F)c2C(=O)Nc2ccc(F)c(C#N)c2)S(=O)(=O)N1` [Compound 45, (3S)—N-(3-cyano-4-fluoro-phenyl)-7-fluoro-3-isopropyl-1,1-dioxo-3,4-dihydro-2H-5,1λ^6,2-benzoxathiazepine-6-carboxamide], the concentration for a half-maximal effect (EC50) in the data set with HBV (setting [2]) amounted to 0.23 µM. The same molecule came in with a CC50 at 4 days in data set [1] of more than 25 µM.
For `Cn1cc2c(c1C(=O)Nc1ccc(F)c(F)c1)CCNS2(=O)=O` [Compound 13, N-(3,4-difluorophenyl)-6-methyl-1,1-dioxo-3,4-dihydro-2H-pyrrolo-[3,4-e]thiazine-5-carboxamide], in that order: 0.11 µM and more than 25 µM.
As to `CC1C=Cc2c(cn(C)c2C(=O)Nc2ccc(F)c(F)c2)S(=O)(=O)N1` (single isomer, unassigned) [Compound 7a, N-(3,4-difluorophenyl)-3,7-dimethyl-1,1-dioxo-2,3-dihydropyrrolo-[3,4-f]thiazepine-6-carboxamide], the EC50 in the data set with HBV was 0.13 µM. Besides, in data set [1], the cytotoxic concentration (CC50) at 4 days was more than 25 µM.
Consider `Cn1cc2c(c1C(=O)Nc1ccc(F)c(F)c1)OCC(C1CCN(C(=O)OC(C)(C)C)CC1)NS2(=O)=O` (stereo not shown) [Compound 72, tert-butyl 4-[6-[(3,4-difluorophenyl)carbamoyl]-7-methyl-1,1-dioxo-3,4-dihydro-2H-pyrrolo[3,4-b][1,4,5]oxathiazepin-3-yl]piperidine-1-carboxylate], for which the EC50 in the data set with HBV (setting [2]) stood at 0.05 µM. In addition, in data set [1], the CC50 at 4 days was more than 25 µM.
Turning to `Cn1cc2c(c1C(=O)Nc1ccc(F)c(C#N)c1)CCC(C(F)(F)F)NS2(=O)=O` (single isomer, unassigned) [Compound 60a, N-(3-cyano-4-fluoro-phenyl)-7-methyl-1,1-dioxo-3-(trifluoromethyl)-2,3,4,5-tetrahydropyrrolo[3,4-f]thiazepine-6-carboxamide], the EC50 in the data set with HBV came to 0.055 µM. Moreover, in data set [1], the CC50 at 4 days was more than 25 µM.
For the molecule `CC(C)[C@H]1Oc2c(cn(C)c2C(=O)Nc2ccc(F)c(F)c2)S(=O)(=O)N[C@@H]1CO` [compound 240], in the data set with HBV (setting [2]), the EC50 was more than 0.25 µM. Moreover, the CC50 at 4 days in data set [1] is more than 25 µM.
Take `Cc1cc(CC2(C)COc3c(cn(C)c3C(=O)Nc3ccc(F)c(F)c3)S(=O)(=O)N2)n(C)n1` (single isomer, unassigned) [Compound 175a, N-(3,4-difluorophenyl)-3-[(2,5-dimethylpyrazol-3-yl)methyl]-3,7-dimethyl-1,1-dioxo-2,4-dihydropyrrolo[3,4-b][1,4,5]oxathiazepine-6-carboxamide]: in the data set on HBV, the EC50 turned out to be 0.021 µM. The CC50 at 4 days in data set [1] was more than 22.9 µM.
Take `Cc1cc(CC2(C)COc3c(cn(C)c3C(=O)Nc3ccc(F)c(C(F)F)c3)S(=O)(=O)N2)n(C)n1` (single isomer, unassigned) [Compound 176a, N-[3-(difluoromethyl)-4-fluoro-phenyl]-3-[(2,5-dimethylpyrazol-3-yl)methyl]-3,7-dimethyl-1,1-dioxo-2,4-dihydropyrrolo[3,4-b][1,4,5]oxathiazepine-6-carboxamide]: the EC50 in the data set on HBV (setting [2]) came out at 0.012 µM. Besides, the CC50 at 4 days in data set [1] was more than 25 µM.
Consider `C[C@H](O)[C@H]1COc2c(cn(C)c2C(=O)Nc2ccnc(C(F)F)c2)S(=O)(=O)N1` [Compound 77, (3R)—N-[2-(difluoromethyl)-4-pyridyl]-3-[(1S)-1-hydroxyethyl]-7-methyl-1,1-dioxo-3,4-dihydro-2H-pyrrolo[3,4-b][1,4,5]oxathiazepine-6-carboxamide], for which the EC50 with HBV (setting [2]) turned out to be 0.23 µM. This molecule also returned a CC50 at 4 days in data set [1] of more than 25 µM.
For `Cn1cc2c(c1C(=O)Nc1ccc(F)c(C#N)c1)OCCNS2(=O)=O` [Compound 91, N-(3-cyano-4-fluoro-phenyl)-7-methyl-1,1-dioxo-3,4-dihydro-2H-pyrrolo[3,4-b][1,4,5]oxathiazepine-6-carboxamide], in the data set with HBV (setting [2]), the EC50 was 0.13 µM. The cytotoxic concentration (CC50) at 4 days in data set [1] was more than 25 µM.
As to `Cn1cc2c(c1C(=O)Nc1ccc(F)c(F)c1)OCC(C)(Cc1cccnc1)NS2(=O)=O` (single isomer, unassigned) [Compound 199a, N-(3,4-difluorophenyl)-3,7-dimethyl-1,1-dioxo-3-(3-pyridylmethyl)-2,4-dihydropyrrolo[3,4-b][1,4,5]oxathiazepine-6-carboxamide], the EC50 in the data set on HBV was 0.03 µM. Also, the CC50 at 4 days in data set [1] was more than 25 µM.
Turning to `Cn1cc2c(c1C(=O)Nc1ccc(F)c(F)c1)OCC(C)(CO)NS2(=O)=O` (single isomer, unassigned) [Compound 203a, N-(3,4-difluorophenyl)-3-(hydroxymethyl)-3,7-dimethyl-1,1-dioxo-2,4-dihydropyrrolo[3,4-b][1,4,5]oxathiazepine-6-carboxamide], the EC50 with HBV (setting [2]) amounted to 0.094 µM. This molecule also showed a CC50 at 4 days in data set [1] of more than 25 µM.
For `C=C1c2c(cn(C)c2C(=O)Nc2ccc(F)c(F)c2)S(=O)(=O)NC1C(C)C` (stereo not shown) [compound 237], in that order: more than 0.5 µM and more than 25 µM.
For `Cn1cc2c(c1C(=O)Nc1ccc(F)c(Cl)c1)OCC1(CCOC1)NS2(=O)=O` (racemic) [Compound 212, N-(3-chloro-4-fluoro-phenyl)-7-methyl-1,1-dioxo-spiro[2,4-dihydropyrrolo[3,4-b][1,4,5]oxathiazepine-3,3′-tetrahydrofuran]-6-carboxamide], the EC50 in the data set on HBV (setting [2]) turned out to be 0.007 µM. In addition, the CC50 at 4 days in data set [1] was more than 25 µM.
Take `Cn1cc2c(c1C(=O)Nc1ccc(F)c(C#N)c1)OCC(C)(C)NS2(=O)=O` [Compound 135, N-(3-cyano-4-fluoro-phenyl)-3,3,7-trimethyl-1,1-dioxo-2,4-dihydropyrrolo[3,4-b][1,4,5]oxathiazepine-6-carboxamide]: the EC50 in the data set on HBV (setting [2]) was found to be 0.005 µM. For the same molecule, the CC50 at 4 days in data set [1] is more than 25 µM.
The corresponding values for `CCC(O)[C@@H]1COc2c(cn(C)c2C(=O)Nc2ccc(F)c(F)c2)S(=O)(=O)N1` (stereo in doubt) [Compound 142b, N-(3,4-difluorophenyl)-3-(1-hydroxypropyl)-7-methyl-1,1-dioxo-3,4-dihydro-2H-pyrrolo[3,4-b][1,4,5]oxathiazepine-6-carboxamide] are more than 0.125 µM and more than 25 µM.
With `Cn1cc2c(c1C(=O)Nc1ccc(F)c(F)c1)OCC(C)(c1ncco1)NS2(=O)=O` (racemic) [Compound 160, N-(3,4-difluorophenyl)-3,7-dimethyl-3-oxazol-2-yl-1,1-dioxo-2,4-dihydropyrrolo[3,4-b][1,4,5]oxathiazepine-6-carboxamide], the EC50 with HBV (setting [2]) was 0.0145 µM. In data set [1], this molecule gave a CC50 at 4 days of more than 25 µM.
Turning to `Cc1cc(CC2(C)COc3c(cn(C)c3C(=O)Nc3ccnc(C(F)F)c3)S(=O)(=O)N2)no1` (single isomer, unassigned) [Compound 209a, N-[2-(difluoromethyl)-4-pyridyl]-3,7-dimethyl-3-[(5-methylisoxazol-3-yl)methyl]-1,1-dioxo-2,4-dihydropyrrolo[3,4-b][1,4,5]oxathiazepine-6-carboxamide], the EC50 in the data set on HBV came to 0.06 µM. In data set [1], this molecule came in with a CC50 at 4 days of more than 25 µM.
Regarding `C[C@H](O)[C@H]1C=Cc2c(cn(C)c2C(=O)Nc2ccc(F)c(C#N)c2)S(=O)(=O)N1` [Compound 87, (3R)—N-(3-cyano-4-fluoro-phenyl)-3-[(1S)-1-hydroxyethyl]-7-methyl-1,1-dioxo-2,3-dihydropyrrolo[3,4-f]thiazepine-6-carboxamide], the EC50 in the data set on HBV (setting [2]) is 0.018 µM. In data set [1], the CC50 at 4 days was more than 25 µM.
The corresponding values for `Cc1c2c(c(C(=O)Nc3ccc(F)c(F)c3)n1C)CC[C@H](C)NS2(=O)=O` [Compound 152, (3S)—N-(3,4-difluorophenyl)-3,7,8-trimethyl-1,1-dioxo-2,3,4,5-tetrahydropyrrolo[3,4-f]thiazepine-6-carboxamide] are 0.014 µM and more than 25 µM.
`Cn1cc2c(c1C(=O)Nc1ccc(F)c(C#N)c1)CCC(C(C)(O)C(F)(F)F)NS2(=O)=O` (stereo not shown) [Compound 117, N-(3-cyano-4-fluoro-phenyl)-7-methyl-1,1-dioxo-3-(2,2,2-trifluoro-1-hydroxy-1-methyl-ethyl)-2,3,4,5-tetrahydropyrrolo[3,4-f]thiazepine-6-carboxamide]: the EC50 in the data set on HBV (setting [2]) was 0.01 µM. This molecule registered a CC50 at 4 days in data set [1] of more than 25 µM.

The values are drawn from patent US10875876B2, “Cyclized sulfamoylarylamide derivatives and the use thereof as medicaments for the treatment of hepatitis B” (priority 2015, dated 2020).
